Measurements: US20260232572A1, “INJECTABLE COMPOSITION, PHARMACEUTICAL FORMULATION INCLUDING THE SAME, AND METHOD FOR PREPARING THE COMPOSITION” (ONCONIC THERAPEUTICS INC., priority 2023, published 2026)
Like-named read-outs stand apart in the source and are kept apart here.

Experiments:
[1] = Bioavailability on oral administration, citrate of Compound 1 compared to free base; format: in vivo; details: orally administered
[2] = Solubility of citrate of Compound 1 depending on pH; format: physicochemical

For `Cc1cccc(C)c1CNc1cc(C(=O)N2CCC2)cn2c(C)c(C)nc12.O=C(O)CC(O)(CC(=O)O)C(=O)O` [citrate of Compound 1, azetidin-1-yl{8-[(2,6-dimethylbenzyl)amino]-2,3-dimethylimidazo[1,2-a]pyridin-6-yl}methanone citrate], which “AUC compared to Compound 1 free base” value [1] is on record?
The value was “at least five”.

What about the “Cmax compared to Compound 1 free base” value [1] of the same compound?
The value was ≥ 11 times.

And the “time to reach highest blood concentration” value ([1]; compared to Compound 1 free base)?
Its value is “within a short time compared to Compound 1”.

And the solubility ([2]; aqueous buffer, pH 3 or higher, particularly pH 3.3 or higher, read-out: solubility)?
The solubility was < 1500 µg/mL.

What about the solubility ([2]; below pH 3) of the same compound?
Its solubility is “very excellent solubility”.

What about the solubility ([2]; pH 3 to 4.7, due to SBE-β-CD) of the same compound?
Its solubility is “excellent solubility”.
